Test results published in patent publication US20250296922A1, “POLYSUBSTITUTED PYRROLIDINE DERIVATIVE, PREPARATION METHOD THEREFOR AND USE THEREOF” (SHANGHAI WENNAI THERAPEUTICS CO LTD, priority 2023, published 2025).

Assay: Stability of the compound in liver microsomes (rat)
Type: in vitro ADME, SD rat
Conditions: 1 μM compound, 0.5 mg protein/mL
Method: 2.1.1. working solution: 5 μL of test or control compound stock solution (10 mM DMSO solution) was diluted with 495 μL of acetonitrile (ACN) to obtain an intermediate stock solution (100 μM, 99% ACN).
2.2.2 Preparation procedure: An appropriate amount of NADPH powder was weighed and diluted with 10 mM MgCl2 buffer (working solution concentration: 10 mM; final reaction system concentration: 1 mM).
2.3.2 Preparation procedure: The appropriate concentration of liver microsomal working solution was prepared in 100 mM potassium phosphate buffer;
Acetonitrile (ACN) solution at 4° C. containing 200 ng/mL of Tolbutamide and 200 ng/ml of labetalol as internal standards 2.5. Operation steps:
2.5.2. Diluting liver microsomes with 100 mM potassium phosphate buffer to a concentration of 0.56 mg/mL.
2.5.3. Transferring 445 μL of liver microsomal working solution (0.56 mg/mL) to pre-heated incubation plates T60 and NCF60, and then pre-heating the incubation plates T60 and NCF60 for 10 minutes at 37° C. with shaking. Transferring 54 μL of liver microsomes to each well of the blank plate, adding 6 μL of NAPDH coenzyme solution to the blank plate, and finally transferring 180 μL of termination solution to the blank plate.
2.5.4 Adding 5 μL of compound working solution (100 μM) to the incubation plates T60 and NCF60 containing liver microsomes and mixing three times.
2.5.5. Adding 50 μL of buffer to the NCF60 plate and mixing three times, starting the timer and incubating at 37° C. for 60 min with the plate shaking.
2.5.6. Adding 180 μL of quenching solution and 6 μL of NAPDH coenzyme working solution sequentially to quenching plate TO, making sure that the plate was cold to prevent volatilization of the incubation solution.
2.5.7. For plate T60, mixing well three times and immediately transferring 54 μL of mixing solution (0-min time point) to quenching plate TO, then adding 44 μL of NAPDH coenzyme working solution to incubation plate T60. Starting the timer:
2.5.8. At the 5, 15, 30, 45 and 60 minute time points, adding 180 μL of quenching solution to the quenching plate and transferring 60 μL of reaction solution from the T60 plate to the quenching plate at each time point.
2.5.9. For NCF60 plates, mixing well and transferring 60 μL of reaction solution from the NCF60 incubating solution to a quenching plate containing 180 μL of quenching solution at 60th minute.
2.5.10. All plates were mixed on a shaker for 10 min and then centrifuged at 4000 rpm at 4° C. for 20 min.
2.5.11. Transferring 80 μL of supernatant to 240 μL of HPLC water and mixing on a
2.6.1. Calculating t1/2 and Clint (mic) values based on first-order elimination kinetics: […]

COc1c([C@H]2[C@H](C(=O)Nc3ccnc(C(N)=O)c3)O[C@@](C)(C(F)(F)F)[C@H]2C)ccc(F)c1F [VX-548, reference compound]
half-life at 1 μM (Sprague-Dawley, rat, liver microsomes, 37° C., read-out: Rat liver microsomes T½): 16.7 min | Rat liver microsomes Residual (T = 60 min) (T = 60 min): 8.5%
